Earlier results on one molecule are cited in patent US7718658B2 (priority 2004, dated 2010).

Each structure is given as a SMILES string.

The series concerns neuropathic pain. The note with it: in vivo.

For the molecule `NCC1(CC(=O)O)CCCCC1` [Gabapentin], the “share of patients in whom it works” value was 60%.
